The record followed here is US20210010053A1, “ASSAYS FOR IMPROVING AUTOMATED ANTIMICROBIAL SUSCEPTIBILITY TESTING ACCURACY” (SELUX DIAGNOSTICS, INC., priority 2019, published 2021).

For one experiment, the system named is beta lactamase. The experiment is described as follows: beta-lactamase inhibitor assay with nitrocefin probe. Type of experiment: cell-based. As to conditions: 4μg/mL inhibitor, 0.25 mg/mL nitrocefin, 35° C., 4 hours, absorbance 490 nm, FIG. 1. The protocol: Example 1. Microbes were prepared by diluting colonies into saline to reach a McFarland value of 0.5, which was verified using a spectrophotometer. This was diluted 1:20 into saline and 50 μI of inoculum was added to wells of a 384-well plate. For each strain, 25 μI of solutions containing either 0.25 mg/mL nitrocefin alone (Nitro), 0.25 mg/mL nitrocefin and 4μg/mL clauvulanate (Nitro Clay), or 0.25 mg/mL nitrocefin and 4μg/mL tazobactam (Nitro Tazo) were added to duplicate wells. Inoculated plates were incubated at 35° C., shaking at 150 rpm for 4 hours. Absorbance was read at 490 nm and values shown in FIG. 1 are the absorbance in the indicated condition minus the absorbance from microbial inoculum alone without nitrocefin. A greater value indicates microbial ability to degrade nitrocefin, and thus, the presence of a beta lactamase. A reduction in absorbance value in the presence of an inhibitor indicates the beta lactamase present is sensitive to the inhibitor. […] Further, the inhibitors are both active against each of the strains with known beta lactamases.

The test system of a further experiment is M morganii (KPC). As to conditions: 0.01 mM EDTA added to Solution 4, vacuum dried, 3 hours of incubation. The source says: (§1) Example 9. […] Multiple different bacterial strains listed in Table 7 were inoculated into each of 3 wells.
Another experiment deals with E cloacae (IMP). As to conditions: 0.01 mM EDTA added to Solution 4, vacuum dried, 3 hours of incubation.
Description: as §1

The test system of the next experiment is E coli 25922. The note with it: E coli 25922, no carbapenemase; 0.01 mM EDTA added to Solution 4, vacuum dried; 3 hours of incubation.
Description: as §1

A further experiment relates to M morganii (NDM). The note with it: 0.01 mM EDTA added to Solution 4, vacuum dried, 3 hours of incubation.
Description: as §1

The test system of a further experiment is K pneumoniae (KPC). As to conditions: 0.01 mM EDTA added to Solution 4, vacuum dried, 3 hours of incubation.
Description: as §1

Another experiment has as its system E cloacae (NDM). As to conditions: 0.01 mM EDTA added to Solution 4, vacuum dried, 3 hours of incubation.
Description: as §1

A further experiment has as its system K pneumoniae (NDM). As to conditions: 0.01 mM EDTA added to Solution 4, vacuum dried, 3 hours of incubation.
Description: as §1

Molecules are shown by their SMILES.

Consider `O=C(O)[C@H]1/C(=C/CO)O[C@@H]2CC(=O)N21` [clauvulanate], for which the “activity of inhibitor against strains with known beta lactamases (reduction in nitrocefin absorbance)” value with beta lactamase is given as “active”.
The same measure, in the same setting: in the case of `C[C@]1(Cn2ccnn2)[C@H](C(=O)O)N2C(=O)C[C@H]2S1(=O)=O` [tazobactam] it was “active”.
Consider `O=C(O)CN(CCN(CC(=O)O)CC(=O)O)CC(=O)O` [EDTA, Ethylenediaminetetraacetic acid], for which the “Carba Test with EDTA” value is recorded as 1288.5 with M morganii (KPC); −1816.5 with E cloacae (IMP); −1541.5 in the experiment with E coli 25922; −1923.5 with M morganii (NDM); 3705.5 with K pneumoniae (KPC); −2084.5 in the experiment with E cloacae (NDM). Moreover, the “Carba Test with EDTA” value with K pneumoniae (NDM) is reported as −2222.5.
